Experimental findings from patent US8629168B2, “Benzoxazoles and oxazolopyridines being useful as janus kinases inhibitors” (priority 2006, dated 2014) are described below.

One data set concerns the target T1, GST-JAK2 (Homo sapiens, UniProt O60674).
T1 construct: the amino acid domain ASP751-VAL1129 of the JAK2 protein
The experiment in a line: JAK2 kinase assay of the general description (alternative method, flash plate). The data set is classed as biochemical. Conditions: 1.0 μM ATP, read-out: IC50 with test in general description (named “alternative method to that given in the examples”) (“flash plate”). The protocol:
Baculovirus including the amino acid domain ASP751-VAL1129 of the JAK2 protein is obtainable by ProQinase, Freiburg, Germany. The virus is scaled up as following: Virus containing media is collected from the transfected cell culture and used for infection to increase its titer. Virus containing media obtained after two rounds of infection is used for large-scale protein expression. For large-scale protein expression 100 cm^2 round tissue culture plates are seeded with 5×10^7 cells/plate and infected with 1 mL of virus-containing media (approx. 5 MOIs). After 3 days the cells are scraped off the plate and centrifuged at 500 rpm for 5 min. Cell pellets from 10-20, 100 cm^2 plates, are re-suspended in 50 mL of ice-cold lysis buffer (25 mMTris-HCl, pH7.5, 2 mMEDTA, 1% NP-40, 1 mM DTT, 1 mMP MSF). The cells are stirred on ice for 15 min and then centrifuged at 5000 rpms for 20 min. The protein is purified by loading the centrifuged cell lysate onto a 2 mL glutathione-sepharose column and washed three times with 10 mL of 25 mM Tris-HCl, pH 7.5, 2 mM EDTA, 1 mM DTT, 200 mM NaCl. The GST-tagged proteins are then eluted by 10 applications (1 mL each) of 25 mM Tris-HCl, pH 7.5, 10 mM reduced-glutathione, 100 mM NaCl, 1 mM DTT, 10% Glycerol and stored at −70° C.
Cancer Cell; 5: 231-239]. The test compound is dissolved in DMSO (10 mM) and stored at −20° C. Serial dilutions are freshly made in DMSO and are […] concentrated than test solutions (“pre-dilution plates”). They are further diluted with pure water to yield “master plates” containing 3 times concentrated test solutions in 3% DMSO. The final volume of the assay is 30 μL containing 10 μL of test solution (1% DMSO), 10 μL assay mix including the assay components described by Garcia-Echeverria (2004) and in the following section as well as 10 μL enzyme. The pipetting steps can be programmed to be performed either on the MultiPROBE Iix, MultiPROBE IILx or HamiltonSTAR robots in the 96 well format.
The protein kinase assays are carried as described in details by Garcia-Echeverria (see above). The assay for JAK2 is carried out in 96-well plates at ambient temperature for 10 min (filter-biding method) or 30 min (flash plates) in a finial volume of 30 μL including the following components: 300 ng of GST-JAK2, 20 mM Tris-HCl, pH 7.5, 1.0 mM MnCl2, 10 mM MgCl2, 1 mM DTT, 3 μg/mL poly(Glu, Tyr) 4:1, 1% DMSO and 1.0 μM ATP (γ-[^33P]-ATP 0.1 μCi); The assays are terminated by the addition of 20 μl of 125 mM EDTA. The capturing of the phosphorylated peptides by the filter-binding method is performed as following: 40 μL of the reaction mixture are transferred onto Immobilon-PVDF membranes previously soaked for 5 min with methanol, rinsed with water, then soaked for 5 min with 0.5% H3PO4 and mounted on vacuum manifold with disconnected vacuum source. After spotting all samples, vacuum is connected and each well rinsed with 200 μl 0.5% H3PO4. Free membranes are removed and washed 4× on a shaker with 1.0% H3PO4, once with ethanol. Membranes are counted after drying at ambient temperature, mounting in Packard TopCount 96-well frame, and addition of 10 μl/well of Microscint. The plates are eventually sealed and counted in a microplate scintillation counter (TopCount NXT, TopCount NXT HTS, PerkinElmer, Brussels, Belgium).
The assays for the flash plate method is carried out in a total volume of 30 μL at RT in conventional 96-well flash plates. The reaction is stopped after 30 min by the addition of 20 μL of 125 mM EDTA The assay plates are then washed three times with PBS and dried at room temperature. The plates are sealed and counted in a microplate scintillation counter (TopCount NXT, TopCount NXT HTS). IC50 values are calculated by linear regression analysis of the percentage inhibition of the compound either in duplicate, at four concentrations (usually 0.01, 0.1, 1 and 10 μM) or as 8 single point IC50 starting at 10 μM following by 1:3 dilutions.

T1 sequence (O60674 751-1129): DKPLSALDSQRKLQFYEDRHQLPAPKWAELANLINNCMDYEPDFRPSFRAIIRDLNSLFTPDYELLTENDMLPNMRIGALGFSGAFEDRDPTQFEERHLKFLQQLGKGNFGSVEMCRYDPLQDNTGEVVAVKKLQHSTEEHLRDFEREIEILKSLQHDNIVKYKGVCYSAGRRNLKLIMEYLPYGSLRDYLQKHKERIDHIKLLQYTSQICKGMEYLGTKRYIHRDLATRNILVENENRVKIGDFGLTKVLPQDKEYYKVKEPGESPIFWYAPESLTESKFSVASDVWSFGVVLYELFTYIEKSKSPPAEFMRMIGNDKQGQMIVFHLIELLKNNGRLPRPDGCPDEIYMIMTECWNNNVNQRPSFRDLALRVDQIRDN

In the case of `CNC(=O)c1cc(-c2cccc3nc(Nc4cc(OC)c(OC)c(OC)c4)oc23)cs1` (hydrate or solvate) [Example 34, 4-[2-(3,4,5-Trimethoxy-phenylamino)-benzooxazol-7-yl]-thiophene-2-carboxylic acid methylamide], the melting point is 260 to 262 °C.

On to `COc1cc(Nc2nc3cccc(-c4ccc5[nH]cnc5c4)c3o2)cc(OC)c1OC` (hydrate or solvate) [Example 35, [7-(1H-Benzoimidazol-5-yl)-benzooxazol-2-yl]-(3,4,5-trimethoxy-phenyl)-amine], for which the melting point lay within 150 to 156 °C.

In the case of `COc1cc(Nc2nc3ccnc(-c4ccc(N)cc4)c3o2)cc(OC)c1OC` (hydrate or solvate) [Example 36, [4-(4-Amino-phenyl)-oxazolo[5,4-c]pyridin-2-yl]-(3,4,5-trimethoxy-phenyl)-amine], the melting point fell in the range of 148 to 151 °C.

`COc1cc(Nc2nc3cccc(-c4cccc(C)c4)c3o2)cc(OC)c1OC` [Example 1, (7-m-Tolyl-benzooxazol-2-yl)-(3,4,5-trimethoxy-phenyl)-amine] returned a melting point of 155 to 158 °C. The half-inhibitory concentration (IC50) at GST-JAK2 was determined as 337 nM.

`COc1cc(Nc2nc3cccc(-c4ccccc4)c3o2)cc(OC)c1OC` [Example 2, (7-Phenyl-benzooxazol-2-yl)-(3,4,5-trimethoxy-phenyl)-amine] returned a melting point of 182 to 185 °C.

Take `COc1cc(Nc2nc3cccc(-c4cccnc4)c3o2)cc(OC)c1OC` [Example 3, (7-Pyridin-3-yl-benzooxazol-2-yl)-(3,4,5-trimethoxy-phenyl)-amine]: the melting point was in the range of 165 to 170 °C. The IC50 on GST-JAK2 came to 583 nM.

In the case of `COc1cccc(-c2cccc3nc(Nc4cc(OC)c(OC)c(OC)c4)oc23)c1` [Example 4, [7-(3-Methoxy-phenyl)-benzooxazol-2-yl]-(3,4,5-trimethoxy-phenyl)-amine], the melting point is 167 to 170 °C. Also, the IC50 on GST-JAK2 worked out at 99 nM.

`COc1ccccc1-c1cccc2nc(Nc3cc(OC)c(OC)c(OC)c3)oc12` [Example 5, [7-(2-Methoxy-phenyl)-benzooxazol-2-yl]-(3,4,5-trimethoxy-phenyl)-amine] showed a melting point of 185 to 187 °C. The IC50 on GST-JAK2 stood at 150 nM.

For the compound `COc1ccc(-c2cccc3nc(Nc4cc(OC)c(OC)c(OC)c4)oc23)cc1` [Example 7, [7-(4-Methoxy-phenyl)-benzooxazol-2-yl]-(3,4,5-trimethoxy-phenyl)-amine], the melting point lay within 179 to 182 °C.

For `COc1cc(Nc2nc3cccc(-c4cncc5ccccc45)c3o2)cc(OC)c1OC` [Example 8, (7-Isoquinolin-4-yl-benzooxazol-2-yl)-(3,4,5-trimethoxy-phenyl)-amine], the melting point lay within 201 to 203 °C. Besides, at GST-JAK2, the IC50 is 368 nM.

As to `COc1cc(Nc2nc3cccc(-c4cccc(Cl)c4)c3o2)cc(OC)c1OC` [Example 9, [7-(3-Chloro-phenyl)-benzooxazol-2-yl]-(3,4,5-trimethoxy-phenyl)-amine], the melting point is 199 to 201 °C. The IC50 on GST-JAK2 stood at 590 nM.

`COc1cc(Nc2nc3cccc(-c4cccc(N)c4)c3o2)cc(OC)c1OC` [Example 10, [7-(3-Amino-phenyl)-benzooxazol-2-yl]-(3,4,5-trimethoxy-phenyl)-amine] gave a melting point of 145 to 170 °C. The IC50 on GST-JAK2 is 132 nM.

Turning to `COc1cc(Nc2nc3cccc(-c4ccc(N)cc4)c3o2)cc(OC)c1OC` [Example 11, [7-(4-Amino-phenyl)-benzooxazol-2-yl]-(3,4,5-trimethoxy-phenyl)-amine], the melting point was 192 to 196 °C. For the same compound, at GST-JAK2, the IC50 worked out at 147 nM.

In turn, `COc1ccc(-c2cccc3nc(Nc4cc(OC)c(OC)c(OC)c4)oc23)cn1` [Example 12, [7-(6-Methoxy-pyridin-3-yl)-benzooxazol-2-yl]-(3,4,5-trimethoxy-phenyl)-amine] registered a melting point of 192 to 193 °C. Moreover, on GST-JAK2, the IC50 was found to be 670 nM.

`COc1cc(Nc2nc3cccc(-c4ccc(C)c(N)c4)c3o2)cc(OC)c1OC` [Example 13, [7-(3-Amino-4-methyl-phenyl)-benzooxazol-2-yl]-(3,4,5-trimethoxy-phenyl)-amine] displayed a melting point of 188 to 190 °C. Moreover, the IC50 on GST-JAK2 was 174 nM.

With `COc1cc(Nc2nc3cccc(-c4ccc5ncccc5c4)c3o2)cc(OC)c1OC` [Example 15, (7-Quinolin-6-yl-benzooxazol-2-yl)-(3,4,5-trimethoxy-phenyl)-amine], the melting point lay in the range of 187 to 190 °C. For the same compound, the IC50 at GST-JAK2 was found to be 570 nM.

Take `COc1cc(Nc2nc3cccc(-c4ccc(C#N)cc4)c3o2)cc(OC)c1OC` [Example 19, 4-[2-(3,4,5-Trimethoxy-phenylamino)-benzooxazol-7-yl]-benzonitrile]: the melting point lay in the range of 222 to 223 °C. Besides, at GST-JAK2, the IC50 worked out at 170 nM.

In turn, `COc1cc(Nc2nc3cccc(-c4ccn[nH]4)c3o2)cc(OC)c1OC` [Example 20, [7-(2H-Pyrazol-3-yl)-benzooxazol-2-yl]-(3,4,5-trimethoxy-phenyl)-amine] returned a melting point of 185 to 189 °C. The IC50 at GST-JAK2 was found to be 1000 nM.

For the compound `COc1cc(Nc2nc3cccc(-c4ccc(S(=O)(=O)N(C)C)cc4)c3o2)cc(OC)c1OC` [Example 22, N,N-Dimethyl-4-[2-(3,4,5-trimethoxy-phenylamino)-benzooxazol-7-yl]-benzenesulfonamide], the melting point lay within 230 to 233 °C. The IC50 on GST-JAK2 came to 140 nM.

`COc1cc(Nc2nc3cccc(-c4ccc(S(=O)(=O)N5CCOCC5)cc4)c3o2)cc(OC)c1OC` [Example 23, {7-[4-(Morpholine-4-sulfonyl)-phenyl]-benzooxazol-2-yl}-(3,4,5-trimethoxy-phenyl)-amine]: the melting point lay within 201 to 203 °C. The IC50 on GST-JAK2 was found to be 190 nM.

The compound `COc1cc(Nc2nc3cccc(-c4ccc(C(=O)N(C)C)cc4)c3o2)cc(OC)c1OC` [Example 25, N,N-Dimethyl-4-[2-(3,4,5-trimethoxy-phenylamino)-benzooxazol-7-yl]-benzamide] returned a melting point greater than 280 °C. In addition, the IC50 at GST-JAK2 came to 140 nM.

With `COc1cc(Nc2nc3cccc(-c4cccc(NC(C)=O)c4)c3o2)cc(OC)c1OC` [Example 28, N-{3-[2-(3,4,5-Trimethoxy-phenylamino)-benzooxazol-7-yl]-phenyl}-acetamide], the melting point was 170 to 172 °C. On GST-JAK2, the IC50 is 310 nM.

For the compound `COc1cc(Nc2nc3cccc(-c4cccc(CN)c4)c3o2)cc(OC)c1OC` [Example 32, [7-(3-Aminomethyl-phenyl)-benzooxazol-2-yl]-(3,4,5-trimethoxy-phenyl)-amine], the melting point was in the range of 145 to 150 °C. Also, the IC50 at GST-JAK2 is 270 nM.

`COc1cc(Nc2nc3cccc(-c4cccc(CNC(C)=O)c4)c3o2)cc(OC)c1OC` [Example 33, N-{3-[2-(3,4,5-Trimethoxy-phenylamino)-benzooxazol-7-yl]-benzyl}-acetamide] had a melting point of 203 to 204 °C. The IC50 at GST-JAK2 was 290 nM.

Usually melting point stands for the temperature of the solid-liquid transition. For orientation: IC50 means the concentration that gives 50% inhibition.
